Ki data for one compound are collected here from BindingDB's records for doi:10.1021/jm2005089 (National Human Genome Research Institute, 2011).

This test addresses T1, Polyunsaturated fatty acid lipoxygenase ALOX12 (Homo sapiens, UniProt P18054).
T1 sequence (P18054 whole entry): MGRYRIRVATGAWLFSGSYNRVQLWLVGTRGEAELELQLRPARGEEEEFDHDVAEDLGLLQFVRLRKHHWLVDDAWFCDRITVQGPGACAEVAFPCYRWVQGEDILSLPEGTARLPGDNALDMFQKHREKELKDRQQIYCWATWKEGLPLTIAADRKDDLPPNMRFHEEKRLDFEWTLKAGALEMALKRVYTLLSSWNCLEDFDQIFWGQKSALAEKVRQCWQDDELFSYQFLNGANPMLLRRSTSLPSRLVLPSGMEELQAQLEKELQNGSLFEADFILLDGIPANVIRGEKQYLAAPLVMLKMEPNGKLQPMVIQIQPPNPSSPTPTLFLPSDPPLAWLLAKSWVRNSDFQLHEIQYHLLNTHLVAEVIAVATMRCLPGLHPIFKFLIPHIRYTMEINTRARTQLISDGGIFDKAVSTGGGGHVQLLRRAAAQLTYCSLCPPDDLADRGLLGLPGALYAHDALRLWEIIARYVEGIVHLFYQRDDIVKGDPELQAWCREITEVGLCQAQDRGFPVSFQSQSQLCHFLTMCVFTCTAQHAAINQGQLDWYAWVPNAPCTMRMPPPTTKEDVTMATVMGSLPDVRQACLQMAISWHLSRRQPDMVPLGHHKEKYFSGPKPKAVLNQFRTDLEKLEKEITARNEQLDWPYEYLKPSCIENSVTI
As to the kind of experiment: Competitive inhibition of human platelet-type N-terminally His6-tagged 12-lipoxygenase assessed as 12-HPETE formation using arachidonic acid by Michaelis-Menten equation analysis.

Regarding `CC(=O)NC(c1cccs1)c1cc(Cl)c2cccnc2c1O` (stereo unspecified), the Ki (as a rule, a dissociation constant, usually derived from enzyme kinetics or from competition with a known ligand) worked out at 700 nM.
